Measurements published in US9517988B2 (Sichuan Haisco Pharmaceutical Co., Ltd., priority 2013, dated 2016).

What was measured:
[1] = Righting reflex experiment on mice; details: both, ICR, mouse, in vivo
Method: (§1) LD5 (5% lethal dose): dose required to cause 5% of mice to die in a test.
(§2) If a normal animal was able to immediately turn its body to normal upright position after being pushed over or made lying on its back, such a reflex was determined as the righting reflex. Otherwise, loss of the righting reflex and the time of loss were recorded, and a reflex recovery time was recorded when the animal restored the righting reflex. The period from finishing of drug administration until loss of the righting reflex was recorded as the anesthesia induction time, and the period from loss of the righting reflex until recovery of the righting reflex was recorded as the anesthesia maintenance time.
(§3) TI (therapeutic index, i.e. LD50/ED50), SI (safety index, i.e. LD5/ED95).
(§4) MTD (maximum tolerated dose): the maximum dose able to cause 100% to loss the righting index without death.
(§5) Indicators such as median effective dose (ED50), median lethal dose (LD50), therapeutic index (TI, i.e. LD50/ED50), safety index (SI, i.e. LD5/ED95), anesthesia induction time, anesthesia maintenance time, and maximum tolerated dose (MTD) were used to evaluate the effect and safety of anesthesia. […] After adapting to the laboratory environment, laboratory animals were fasted for 12 hours. On the next day, administration was carried out at 10 mg/kg body weight. Upon intravenous injection, the time of loss of the righting reflex was recorded. The period from finishing of drug administration until loss of the righting reflex was recorded as the anesthesia induction time, and the period from loss of the righting reflex until recovery of the righting reflex was recorded as the anesthesia maintenance time. The anesthesia induction time and the anesthesia maintenance time were used to indicate how strong an anesthetic effect was. Meanwhile, the dose required to cause a 7-min anesthesia (HD7) was measured and used to evaluate relative efficacy.

[2] = tested on: ICR mice; test: Righting reflex experiment on mice; details: for ED50: Mus musculus, iv; for Anesthesia induction time / Anesthesia maintenance time / HD7: mice; for Anesthesia induction time / Anesthesia maintenance time: intravenous injection; for Anesthesia induction time: end of administration until loss of righting reflex; for Anesthesia maintenance time: loss until recovery of righting reflex; for HD7: dose required to cause a 7-min anesthesia; for TI: therapeutic index, LD50/ED50, mice
Method: as §1, §2, §3, §4, §5

[3] = Pharmacokinetic experiment on rats; format: in vivo, SD rats; details: male, Sprague-Dawley, rat, plasma; Intravenous Injection into Rats (1 mg/kg)
Method: 3 male SD rats, each weighing 180 to 240 g, were fasted overnight with water access. A 1 mL/kg solution of the compound was formulated with 10% DMA, 20% solutol HS-15 (30%, w/v) and 70% physiological saline. Blood was sampled before administration and 2 min, 4 min, 8 min, 12 min, 15 min, 30 min, 1 h, 1.5 h and 2 h after administration. Blood samples were centrifuged at 5500 rpm for 10 min, and plasma was collected and stored at −40° C. 10 μl rat plasma from each time point was added to a 200 μl acetonitrile solution containing an internal standard and mixed, followed by 1-min vortexing and 18-min centrifugation at 3700 rpm. Then 70 μl supernatant was mixed with 70 μl water, and 10 μl of the mixture was analyzed by LC-MS/MS. Major pharmacokinetic parameters were subjected to a non-compartment analysis with the software WinNonlin 6.3.

[4] = tested on: Beagle dogs; test: Haemodynamic effects in Beagle dogs; format: in vivo; details: for Dose required to produce the same anesthetic effect: Beagle dogs, intravenous emulsion for injection
Method: Data of various indicators such as electrocardiogram, blood pressure and body temperature of the animals were continuously collected from about 3.5 hours before administration until 6 hours after administration.

[5] = tested on: GABAA receptors; details: CHO/GABAA; for EC50: enhancement of muscimol-induced GABAA receptor current, whole-cell patch-clamp
Method: Various concentrations of test compounds and muscimol were added together to CHO/GABAA, and the current mediated by GABAA receptors was measured. Two measurements were performed for each concentration to obtain an average response current. The enhancement of the current mediated by GABAA receptors was calculated by the following equation: Enhancement (%)=100*(Test Compound−Control)/Control
The Control group is the peak current amplitude induced by muscimol, and the Test Compound group is the peak current amplitude co-induced by the test compounds and muscimol. The enhancement (%) was calculated for each concentration, and EC50 was calculated by normalization.

[6] = Pharmacokinetic analysis with prodrugs in rats; format: in vivo, SD rats; details: male, Sprague-Dawley, rat, plasma, iv, 10 mg/kg
Method: 3 male SD rats, each weighing 180 to 240 g, were fasted overnight with water access. After a single intravenous administration of a prodrug at 10 mg/kg to rats, the plasma concentrations of the prodrug and the active form were each measured by LC-MS/MS, and the pharmacokinetic parameters were analyzed.

[7] = tested on: ICR mice; test: Righting reflex experiment on mice with prodrugs; format: in vivo
Method: After adapting to the laboratory environment, the SPF-grade ICR mice were fasted for 12 hours.

[8] = Efficacy experiment on rats with prodrugs; format: in vivo; details: both sexes, Sprague-Dawley, rat, in vivo, intravenous, SD rats
Method: (§6) This experiment selected SD rats, each weighing 180 to 200 g. The rats were randomized, with 10 animals per group, half male and half female. […] The time of administration, time of loss of the righting reflex, time of recovery of the righting reflex, and time of walking were recorded. Adverse effects shown by the rats after administration were also recorded.
(§7) Time of loss of the righting reflex: the righting reflex is lost; a rat made lying on its back can maintain the lying for a period of 60 s;
(§8) Time of recovery of the righting reflex: the righting reflex ability is restored; a rat made lying on its back rights in less than 2 s;
(§9) Time of walking: spontaneous forwarding moving occurs, and muscle tension of the limbs recovers.
(§10) Using GraphPad Prism 5, ED50 and LD50 values were calculated from a non-linear fitting of number of anesthetic or dead animals resulting from various doses.

[9] = tested on: SD rats; test: Efficacy experiment on rats with prodrugs; format: in vivo
Method: as §6, §7, §8, §9, §10

[10] = injection; cited from earlier work
[11] = mice, intravenous injection, prodrugs

SMILES: CC(C)c1cccc([C@H](C)C2CC2)c1O [Compound 16, 2-[(1R)-1-cyclopropylethyl]-6-isopropyl-phenol]
- MTD ([1]; intravenous): 6 mg/kg
- LD50 ([1]; iv): 9.9 mg/kg
- ED50 [2]: 1.5 mg/kg
- Anesthesia induction time [2]: <15.0 s
- Anesthesia maintenance time [2]: 631.9 s
- HD7 [2]: 3.5 mg/kg
- SI ([2]; safety index, LD5/ED95, mice): 4.1
- TI [2]: 6.7
- AUC(0-t) [3]: 168 ng·h/mL
- clearance [3]: 105 mL/min/kg
- half-life [3]: 30 min
- Dose required to produce the same anesthetic effect [4]: 2 mg/kg
- Effect on the heart rate and blood pressure ([4]; conscious Beagle dogs, Compound 16 2 mg/kg vs propofol 10 mg/kg): smaller than that of propofol
- Activity compared with propofol ([5]; patch clamp): lower ED50
- Effect on the ion channels of GABAA receptors ([5]; patch clamp): activating effect
- EC50 [5]: 1.1 µM

SMILES: CC(C)c1cccc(C(C)C)c1O [Propofol, reference compound]
- ED50 [2]: 11.7 mg/kg
- Anesthesia induction time [2]: <15.0 s
- Anesthesia maintenance time [2]: 652.5 s
- HD7 [2]: 14.0 mg/kg
- TI [2]: 2.7
- AUC(0-t) [3]: 81.9 ng·h/mL
- clearance [3]: 204 mL/min/kg
- half-life [3]: 42 min
- AUC(0-t) [6]: 81.9 ng·h/mL
- clearance [6]: 204 mL/min/kg
- half-life [6]: 42 min
- ED50 ([7]; Mus musculus, mice, intravenous injection, prodrugs formulated with physiological saline, read-out: ED50): 11.7 mg/kg
- Anesthesia induction time [7, 11]: <15.0 s
- Anesthesia maintenance time [7, 11]: 652.5 s
- MTD ([7]; mice, prodrugs): 20.0 mg/kg
- TI ([7]; therapeutic index, LD50/ED50, mice, prodrugs): 2.7
- MTD [8]: 12.5 mg/kg
- LD50 ([8]; tail vein, non-linear fitting): 19.1 mg/kg
- ED50 ([9]; Rattus norvegicus, SD rats, tail vein, non-linear fitting): 5.7 mg/kg
- Anesthesia induction time ([9]; SD rats, tail vein): 0.0 s
- Anesthesia maintenance time ([9]; SD rats, tail vein): 652.0 s
- TI ([9]; therapeutic index, LD50/ED50, rats): 3.4
- Dose required to produce the same anesthetic effect [4]: 10 mg/kg
- Effect on the ion channels of GABAA receptors ([5]; patch clamp): activating effect
- EC50 [5]: 5.3 µM
- Patients on injections feeling certain pain or discomfort [10]: approximately 70%
